The data set relates to acute GVHD in F1 hybrid BN/Lew rats. The data set is described as follows: GVHD animal experiment: irradiated rats after transplantation of bone marrow cells and T lymphocytes. The settings on record: methotrexate-albumin 2 mg/kg i.p. day 0, 4, 8, 12, MTX at equieffective doses. The class given is in vivo. The source says: Animal experiments: (authorization No. LVL M-V310-4/7221.3-1.2-015/03 Landesveterinäramt Mecklenburg-Vorpommern Rostock)
Dr. M. Freund in Rostock University clinic under the direction of PD Dr G. Hartung and Dr D. Wolff. These entailed 20 female F1 hybrid BN/Lew rats receiving whole-body irradiation with 7.5 Gy (n=10) or 9 Gy (n=10) and then transplantation of 40 million bone marrow cells and 15 million T lymphocytes from female Lew rats.

On to `CN(Cc1cnc2nc(N)nc(N)c2n1)c1ccc(C(=O)N[C@@H](CCC(=O)O)C(=O)O)cc1` [MTX, 4-amino-4-deoxy-10-methylfolic acid], for which the side effects entry is on record as “distinct side effect”.

The values are drawn from patent US7781406B2, “Production and use of the methotrexate-albumin conjugate as an immunosuppressive agent in GVHD” (Albupharm Heidelberg GmbH & Co. KG, priority 2004, dated 2010).
